# Reference: EP0482717A1, “Use of a benzo[b]thiophene-2-carboximidamide derivative against heart failure” (Akzo Nobel N.V., priority 1990, dated 1992)
# Marks after values point to notes of the source that are not given here.
# Tests used:
# Type in all cases: in vivo
# [1] = Plasma drug levels in multiple dose studies in rats; conditions: compared with an equivalent dose of compound II
# conscious dog = assay: Left ventricular contractility (LV dP/dt), emesis and restlessness after oral administration to conscious dogs
# From the text: (§1) Related compounds with positive inotropic activity have been disclosed in European patent 158,380.
# (§2) The pharmacological results after oral administration of compounds I (this invention) vs. compounds II and III (EP 158,380), are depicted in table I (cat) and table II (dog).
# anaesthetized cat = assay: Left ventricular contractility (LV dP/dt) after oral administration (by gavage) to anaesthetized cats; conditions: for potency at increasing left ventricular contractility (LV dP/dt): administered orally (by gavage), compounds I and II compared, species not given
# From the text: However, it also appeared that this improvement with regard to compound II could be fully attributed to its reduced bioavailability. […] Poor activity was also observed after oral administration (by gavage) of the compound to anaesthetized cats. Substitution with C1 at the 4- position in the benzothiophene nucleus, thus reduces oral activity.
# as §2
# volunteers = assay: Clinical Phase I studies, oral administration to volunteers
# From the text: as §1
# [2] = oral administration, conscious dog, dose 25 mg/kg
Compound,plasma drug levels [1],emetic effect compared with compound II (conscious dog; oral administration to conscious dogs),emesis (conscious dog; [2]),increase in LV dP/dt (%) (conscious dog; [2]),restlessness (conscious dog; [2]),increases in LV dP/dt (conscious dog; oral dose 25 mg/kg),vomiting (conscious dog; oral dose 25 mg/kg),potency at increasing left ventricular contractility (LV dP/dt) (anaesthetized cat),"increases of left ventricular contractility (LV dP/dt) (conscious dog; conscious dogs, oral administration, doses up to and including 50 mg/kg)",emesis and vomiting (conscious dog; dose not stated),restlessness (conscious dog; dose not stated),activity after oral administration (by gavage) (anaesthetized cat; anaesthetized cats),nausea and vomiting (volunteers),doses at which the compound consistently produces vomiting and restlessness (conscious dog; administered orally to conscious restrained dogs) [mg/kg]
"COc1cc2sc(C(=N)NO)cc2c(F)c1OC [Compound I, 4-fluoro-N-hydroxy-5,6-dimethoxybenzo[b]thiophene-2-carboximidamide]",higher,less emetic than compound II,0,45%,0,marked increases,no significant vomiting,approximately equipotent,–,–,–,–,–,–
COc1cc2sc(C(N)=NO)cc2c(Cl)c1OC [III],–,–,0,10%,–,–,–,–,Only modest increases,did not cause emesis and vomiting,restlessness was still observed,Poor activity,–,–
COc1cc2cc(C(N)=NO)sc2cc1OC [II],–,–,–,50-100* %,–,–,–,approximately equipotent,–,–,–,–,nausea and vomiting were also observed,> 10
